Laboratory results as given in patent US10947213B1 (Merck Patent GmbH, priority 2015, dated 2021).
Where a name gives a salt, the structure may show the parent alone.

Molecular target: T1, TLR7/NFKb HEK cells (Homo sapiens, UniProt Q9NYK1)
T1 construct: expressed in transfected cells; host or cells: HEK cells (TLR7/NFKb reporter line)
T1 sequence (Q9NYK1 27-1049): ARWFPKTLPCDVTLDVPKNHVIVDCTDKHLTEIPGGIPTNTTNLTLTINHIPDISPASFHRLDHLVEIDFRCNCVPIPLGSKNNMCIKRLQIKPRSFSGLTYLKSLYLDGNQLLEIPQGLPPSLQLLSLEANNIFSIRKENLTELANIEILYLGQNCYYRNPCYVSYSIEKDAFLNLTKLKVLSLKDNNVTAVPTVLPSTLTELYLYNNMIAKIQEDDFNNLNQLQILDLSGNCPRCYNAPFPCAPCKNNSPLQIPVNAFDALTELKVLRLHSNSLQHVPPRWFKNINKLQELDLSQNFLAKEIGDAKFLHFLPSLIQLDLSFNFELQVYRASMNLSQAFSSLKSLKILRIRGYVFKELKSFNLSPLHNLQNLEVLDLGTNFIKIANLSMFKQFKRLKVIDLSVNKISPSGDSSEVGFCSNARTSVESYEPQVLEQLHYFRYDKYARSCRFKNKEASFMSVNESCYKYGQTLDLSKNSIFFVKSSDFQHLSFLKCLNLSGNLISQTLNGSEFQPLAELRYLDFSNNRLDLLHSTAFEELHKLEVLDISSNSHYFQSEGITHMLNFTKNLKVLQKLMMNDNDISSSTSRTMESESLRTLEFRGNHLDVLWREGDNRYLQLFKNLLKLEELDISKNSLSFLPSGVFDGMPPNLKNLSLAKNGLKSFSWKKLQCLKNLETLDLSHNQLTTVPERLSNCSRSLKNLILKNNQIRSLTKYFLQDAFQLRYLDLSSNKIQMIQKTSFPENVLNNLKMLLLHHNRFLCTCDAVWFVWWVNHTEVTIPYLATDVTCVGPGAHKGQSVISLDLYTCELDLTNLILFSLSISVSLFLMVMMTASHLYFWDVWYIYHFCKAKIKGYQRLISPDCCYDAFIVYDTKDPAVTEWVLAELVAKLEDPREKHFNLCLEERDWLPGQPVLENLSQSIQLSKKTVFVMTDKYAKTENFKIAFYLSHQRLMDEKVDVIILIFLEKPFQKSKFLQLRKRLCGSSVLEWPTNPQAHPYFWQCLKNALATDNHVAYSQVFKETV
Test: HEK Cell Assay (TLR7/NFKb reporter, Steady-Glo luciferase readout)
Type: cell-based
Conditions: 30 min compound preincubation, then R*48 agonist for 5 hours, read-out: Potency
How it was run: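 Steady-Glo luminescence after 5 h stimulation with R*48 agonist, following 30 min compound preincubation. Assay run in HEK cells carrying a TLR7/NFKb luciferase reporter, plated at 5000 cells/well and grown 24 h at 37° C (10% CO2) before treatment.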

Row | SMILES | IC50 [µM]
1 | C[C@H]1C[C@@H](NC(=O)C2(N)CC2)CN(c2ccc(C#N)c3nccnc23)C1 [Compound 31, 1-amino-N-((3R,5S)-1-(8-cyanoquinoxalin-5-yl)-5-methylpiperidin-3-yl)cyclopropanecarboxamide hydrochloride] | 1 to 10
2 | C[C@H]1C[C@@H](NC(=O)CN(C)C)CN(c2ccc(C#N)c3nccnc23)C1 [Compound 32, N-((3R,5S)-1-(8-cyanoquinoxalin-5-yl)-5-methylpiperidin-3-yl)-2-(dimethylamino)acetamide] | < 1
3 | C[C@H]1C[C@@H](NC(=O)CN(C)C)CN(c2ccnc3nccnc23)C1 [Compound 33, 2-(dimethylamino)-N-((3R,5S)-5-methyl-1-(pyrido[2,3-b]pyrazin-8-yl)piperidin-3-yl)acetamide] | 1 to 10
4 | C[C@H]1C[C@@H](NC(=O)CN)CN(c2ccnc3nccnc23)C1 [Compound 34, 2-amino-N-((3R,5S)-5-methyl-1-(pyrido[2,3-b]pyrazin-8-yl)piperidin-3-yl)acetamide] | > 10
5 | C[C@H]1C[C@@H](NC(=O)CN)CN(c2ccc(C#N)c3nccnc23)C1 [Compound 35, 2-amino-N-((3R,5S)-1-(8-cyanoquinoxalin-5-yl)-5-methylpiperidin-3-yl)acetamide hydrochloride] | < 1
6 | C[C@H]1C[C@@H](NC(=O)C2(C)COC2)CN(c2ccc(C#N)c3nccnc23)C1 [Compound 36, N-((3R,5S)-1-(8-cyanoquinoxalin-5-yl)-5-methylpiperidin-3-yl)-3-methyloxetane-3-carboxamide] | 1 to 10
7 | C[C@H]1C[C@@H](NC(=O)C2(C)COC2)CN(c2ccnc3nccnc23)C1 [Compound 37, 3-methyl-N-((3R,5S)-5-methyl-1-(pyrido[2,3-b]pyrazin-8-yl)piperidin-3-yl)oxetane-3-carboxamide] | > 10
8 | C[C@H]1C[C@@H](NCC#N)CN(c2ccc(C#N)c3nccnc23)C1 [Compound 38, 8-((3R,5S)-3-(cyanomethylamino)-5-methylpiperidin-1-yl)quinoxaline-5-carbonitrile] | < 1
9 | C[C@H]1C[C@@H](NCC#N)CN(c2ccnc3nccnc23)C1 [Compound 39, 2-((3R,5S)-5-methyl-1-(pyrido[2,3-b]pyrazin-8-yl)piperidin-3-ylamino)acetonitrile hydrochloride] | 1 to 10
10 | C[C@H]1C[C@@H](NC(=O)CC(C)(C)C)CN(c2ccc(C#N)c3nccnc23)C1 [Compound 40, N-((3R,5S)-1-(8-cyanoquinoxalin-5-yl)-5-methylpiperidin-3-yl)-3,3-dimethylbutanamide] | < 1
11 | C[C@H]1C[C@@H](NC(=O)CC(C)(C)C)CN(c2ccnc3nccnc23)C1 [Compound 41, 3,3-dimethyl-N-((3R,5S)-5-methyl-1-(pyrido[2,3-b]pyrazin-8-yl)piperidin-3-yl)butanamide] | 1 to 10
12 | C[C@H]1C[C@@H](N2CC[C@@H](N)C2=O)CN(c2ccnc3nccnc23)C1 [Compound 42, (3R)-3-amino-1-[(3R,5S)-5-methyl-1-[pyrido[2,3-b]pyrazin-8-yl]piperidin-3-yl]pyrrolidin-2-one] | > 10
13 | C[C@@H]1CN(c2ccc(C#N)c3nccnc23)C[C@H](CN2CCC(N3CCCC3)CC2)O1 [Compound 57, 8-((2R,6S)-2-methyl-6-((4-(pyrrolidin-1-yl)piperidin-1-yl)methyl)morpholino)quinoxaline-5-carbonitrile] | < 1

The next lines start with the values.

Row | IC50 [µM] | SMILES
14 | > 10 | C[C@@H]1CN(c2ccnc3nccnc23)C[C@H](C)O1 [Compound 43, (2S,6R)-2,6-dimethyl-4-(pyrido[2,3-b]pyrazin-8-yl)morpholine]
15 | < 1 | C[C@@H]1CN(c2ccc(C#N)c3nccnc23)C[C@H](C)O1 [Compound 44, 8-((2R,6S)-2,6-dimethylmorpholino)quinoxaline-5-carbonitrile]
16 | > 10 | C[C@@H]1CN(c2ccnc3ccccc23)C[C@H](C)O1 [Compound 45, (2S,6R)-2,6-dimethyl-4-(quinolin-4-yl)morpholine]
17 | > 10 | Cc1cc2c(N3C[C@@H](C)O[C@@H](C)C3)ccnc2n1C [Compound 46, (2S,6R)-4-(1,2-dimethyl-1H-pyrrolo[2,3-b]pyridin-4-yl)-2,6-dimethylmorpholine]
18 | 1 to 10 | C[C@@H]1CN(c2ccnc3nccnc23)C[C@H](CN2CCN(C)CC2)O1 [Compound 47, (2R,6S)-2-methyl-6-((4-methylpiperazin-1-yl)methyl)-4-(pyrido[2,3-b]pyrazin-8-yl)morpholine]
19 | 1 to 10 | C[C@@H]1CN(c2ccnc3nccnc23)C[C@H](CN2CCNCC2)O1 [Compound 48, (2R,6S)-2-methyl-6-(piperazin-1-ylmethyl)-4-(pyrido[2,3-b]pyrazin-8-yl)morpholine]
20 | < 1 | C[C@@H]1CN(c2ccc(C#N)c3nccnc23)C[C@H](CN2CCN(C)CC2)O1 [Compound 50, 8-((2R,6S)-2-methyl-6-((4-methylpiperazin-1-yl)methyl)morpholino)quinoxaline-5-carbonitrile]
21 | < 1 | CCCN1CCN(C[C@H]2CN(c3ccnc4nccnc34)C[C@@H](C)O2)CC1 [Compound 52, (2R,6S)-2-methyl-6-((4-propylpiperazin-1-yl)methyl)-4-(pyrido[2,3-b]pyrazin-8-yl)morpholine]
22 | < 1 | C[C@@H]1CN(c2ccnc3nccnc23)C[C@H](CN2CCN(C)[C@@H](C)C2)O1 [Compound 53, (2S,6R)-2-(((S)-3,4-dimethylpiperazin-1-yl)methyl)-6-methyl-4-(pyrido[2,3-b]pyrazin-8-yl)morpholine]
23 | < 1 | C[C@@H]1CN(c2ccnc3nccnc23)C[C@H](CN2CCN(C)C(C)(C)C2)O1 [Compound 54, (2R,6S)-2-methyl-4-(pyrido[2,3-b]pyrazin-8-yl)-6-((3,3,4-trimethylpiperazin-1-yl)methyl)morpholine]
24 | < 1 | C[C@@H]1CN(c2ccnc3nccnc23)C[C@H](CN2CCC(N(C)C)CC2)O1 [Compound 55, N,N-dimethyl-1-(((2S,6R)-6-methyl-4-(pyrido[2,3-b]pyrazin-8-yl)morpholin-2-yl)methyl)piperidin-4-amine]
25 | 1 to 10 | C[C@@H]1CN(c2ccnc3nccnc23)C[C@H](CN2CCC(N3CCCC3)CC2)O1 [Compound 56, (2R,6S)-2-methyl-4-(pyrido[2,3-b]pyrazin-8-yl)-6-((4-(pyrrolidin-1-yl)piperidin-1-yl)methyl)morpholine]
26 | < 1 | C[C@@H]1CN(c2ccnc3nccnc23)C[C@H](CN2CCC(N3CCCCC3)CC2)O1 [Compound 58, (2S,6R)-2-(1,4′-bipiperidin-1′-ylmethyl)-6-methyl-4-(pyrido[2,3-b]pyrazin-8-yl)morpholine]
27 | < 1 | C[C@@H]1CN(c2ccc(C#N)c3nccnc23)C[C@H](CN2CCC(N3CCCCC3)CC2)O1 [Compound 59, 8-((2S,6R)-2-(1,4′-bipiperidin-1′-ylmethyl)-6-methylmorpholino)quinoxaline-5-carbonitrile]
28 | 1 to 10 | C[C@@H]1CN(c2ccnc3nccnc23)C[C@H](CN2CCC(N3CCOCC3)CC2)O1 [Compound 60, (2R,6S)-2-methyl-6-((4-morpholinopiperidin-1-yl)methyl)-4-(pyrido[2,3-b]pyrazin-8-yl)morpholine]
29 | 1 to 10 | CC(C)C(=O)NC1CCN(C[C@H]2CN(c3ccnc4nccnc34)C[C@@H](C)O2)CC1 [Compound 61, N-(1-(((2S,6R)-6-methyl-4-(pyrido[2,3-b]pyrazin-8-yl)morpholin-2-yl)methyl)piperidin-4-yl)isobutyramide]
30 | 1 to 10 | CCNC(=O)C1CCN(C[C@H]2CN(c3ccnc4nccnc34)C[C@@H](C)O2)CC1 [Compound 62, N-ethyl-1-(((2S,6R)-6-methyl-4-(pyrido[2,3-b]pyrazin-8-yl)morpholin-2-yl)methyl)piperidine-4-carboxamide]
31 | > 10 | C[C@@H]1CN(c2ccnc3nccnc23)C[C@H](C(=O)N2CC(N)C2)O1 [Compound 63, (3-aminoazetidin-1-yl)((2R,6R)-6-methyl-4-(pyrido[2,3-b]pyrazin-8-yl)morpholin-2-yl)methanone]
32 | 1 to 10 | C[C@@H]1CN(c2ccnc3nccnc23)C[C@H](C(=O)N[C@@H]2CCCNC2)O1 [Compound 64, (2R,6R)-6-methyl-N—((R)-piperidin-3-yl)-4-(pyrido[2,3-b]pyrazin-8-yl)morpholine-2-carboxamide]
